{"source": "patent US4505854A", "about": "“Optically active dipeptides and the use thereof as tissue dissolving and histolytic agent in human beings” (Nattermann & Cie GmbH, priority 1981, dated 1985)", "key": {"[1]": {"tested_on": "healthy guineapig skin", "conditions": "for activity (induction of necrosis, activation of macrophages): comparison of stereoisomeric 2-phenylglycyl-2-phenylglycine dipeptides; for histolysis / local changes at the administration site: 25 or 50 mg/animal (control 10.7 mg/animal), 7 days", "from_the_text": "They were then autopsied and the injection sites (skin and muscle) were subjected to pathological-anatomical and pathological-histological evaluation.\nThis is a chemotactic and activating action on macrophages, which also has a tissue dissolving effect. No systemic toxic symptoms or clinically detectable changes could be observed in any of the experimental animals."}, "[2]": {"assay": "acute toxicity, intravenous administration to rodents"}, "[3]": {"conditions": "local administration, guineapig skin"}}, "note": "Counter-ions that a name gives are not always drawn."}
{"smiles": "N[C@@H](C(=O)N[C@@H](C(=O)O)c1ccccc1)c1ccccc1", "values": [{"measurement": "activity (induction of necrosis, activation of macrophages)", "setting": "[1]", "result": "outstanding properties to induce necrosis and activate macrophages"}, {"measurement": "general tolerance / systemic toxic symptoms", "setting": "[1]; in vivo", "result": "no indications of general intolerance"}, {"measurement": "macrophage and giant cell infiltration at the administration site", "setting": "[1]; [3]", "result": "massive infiltration of macrophages and giant cells"}, {"measurement": "histolysis / local changes at the administration site", "setting": "[1]; [3]", "result": "Local and sharply delineated histolysis"}, {"measurement": "LD50", "setting": "[2]; acute experiment, administered intravenously (to rodents)", "result": "1,000 mg/kg"}, {"measurement": "toxicity, times lower than prior dipeptides of essential aminoacids", "setting": "[2]; compared with 300 mg/kg intravenously (rodents)", "result": 3, "unit": "times lower"}]}
{"smiles": "NC(C(=O)NC(C(=O)O)c1ccccc1)c1ccccc1", "note": "(mixture of isomers) [reference compound]", "values": [{"measurement": "activity (induction of necrosis, activation of macrophages)", "setting": "[1]", "result": "only a very low activity"}, {"measurement": "histolysis / local changes at the administration site", "setting": "[1]; [3]", "result": "no local changes"}]}
{"smiles": "N[C@H](C(=O)N[C@H](C(=O)O)c1ccccc1)c1ccccc1", "note": "[L-2-phenylglycyl-L-2-phenylglycine, reference compound]", "values": [{"measurement": "activity (induction of necrosis, activation of macrophages)", "setting": "[1]", "result": "no activity"}]}
{"smiles": "NCC(=O)O", "note": "[glycine hydrobromide, reference compound]", "values": [{"measurement": "histolysis / local changes at the administration site", "setting": "[1]; [3]", "result": "no local changes"}]}
